Results as given in patent US7084270B2, “Pyrimido compounds having antiproliferative activity” (Hoffman-La Roche Inc., priority 2002, dated 2006).
Like-named read-outs stand apart in the source and are kept apart here.

Experiments:
[1] = biological target: T1, KDR (Homo sapiens, UniProt P35968); assay: KDR kinase HTRF assay; format: biochemical; conditions: enzyme inhibition, 0.3 mM ATP
T1 construct: EEE-tag
Experimental: (§1) To determine inhibition of KDR, FGFR, EGFR, and PDGFR activity, kinase assays were conducted using an HTRF (Homogeneous Time Resolved Fluorescence) assay. This assay is described in A. J. Kolb et. al., Drug Discovery Today, 1998, 3(7), p 333.
Prior to kinase reaction, recombinant EEE-tagged KDR was activated in the presence of activation buffer (50 mM HEPES, pH 7.4, 1 mM DTT, 10% glycerol, 150 mM NaCl, 0.1 mM EDTA, 26 mM MgCl2, and 4 mM ATP). The enzyme was incubated at 4° C. for 1 hour.
(§2) Kinase activity assays were performed in 96-well polypropylene plates (Falcon) with a total volume of 90 μL in each well. Each well contained 1 μM KDR substrate (Biotin-EEEEYFELVAKKKK), 1 nM activated KDR, and a test compound with one of 8 assay concentrations ranging from 100 μM to […] (1:5 serial dilution). The kinase activity assay was done in the presence of 100 mM HEPES, pH 7.4, 1 mM DTT, 0.1 mM Na2VO4, 25 mM MgCl2, 50 mM NaCl (from KDR stock solution), 1% DMSO (from compound), 0.3 mM ATP (at Km concentration) and 0.02% BSA. The reaction was incubated at 37° C. for 30 minutes. To stop the KDR reaction, 72 μL of reaction mixture was transferred into a STOP plate containing 18 μL of revelation buffer (20 mM EDTA, 50 mM HEPES, pH 7.4, 0.02% BSA, 10 nM Eu-labelled anti-pY antibody (final conc. 2 nM), and 100 nM streptavidin (final conc. 20 nM)). After mixing, 35 μL of solution was transferred into duplicate wells of a 384-well black plate (Costar), and read at 615/665 nm on a Wallac Victor 5 reader.
(§3) Compound IC50 values were determined from duplicate sets of data, and calculated by using Excel and fitting data to equation Y=[(a−b)/{1+(X/c)^d]+b, where a and b are enzyme activity in the presence of no test inhibitor compound and an infinite amount of inhibitor test compound, respectively, c is the IC50 and d is the hill constant of the compound response. The IC50 value is the concentration of test compound that reduces by 50% the enzyme activity under the test conditions described.

[2] = biological target: T2, FGFR; assay: FGFR kinase HTRF assay; format: biochemical; conditions: enzyme inhibition, 10 μM ATP
T2 construct: fused on or other part: GST tag
Experimental: as §1, §2
FGFR, EGFR, and PDGFR activity assays were carried out as described above for the KDR activity assay with the following differences. GST-tagged FGFR enzyme was activated at room temperature for 1 hour in the following activation buffer: 100 mM HEPES, pH 7.4, 50 mM NaCl, 20 mM MgCl2, and 4 mM ATP. […] The rest of the assay was performed in the same manner as KDR assay.
as §3

[3] = biological target: EGFR (Homo sapiens, UniProt P00533); assay: EGFR kinase HTRF assay; format: biochemical; conditions: enzyme inhibition, 0.5 μM ATP
Sequence of EGFR (P00533 25-1210, species assumed): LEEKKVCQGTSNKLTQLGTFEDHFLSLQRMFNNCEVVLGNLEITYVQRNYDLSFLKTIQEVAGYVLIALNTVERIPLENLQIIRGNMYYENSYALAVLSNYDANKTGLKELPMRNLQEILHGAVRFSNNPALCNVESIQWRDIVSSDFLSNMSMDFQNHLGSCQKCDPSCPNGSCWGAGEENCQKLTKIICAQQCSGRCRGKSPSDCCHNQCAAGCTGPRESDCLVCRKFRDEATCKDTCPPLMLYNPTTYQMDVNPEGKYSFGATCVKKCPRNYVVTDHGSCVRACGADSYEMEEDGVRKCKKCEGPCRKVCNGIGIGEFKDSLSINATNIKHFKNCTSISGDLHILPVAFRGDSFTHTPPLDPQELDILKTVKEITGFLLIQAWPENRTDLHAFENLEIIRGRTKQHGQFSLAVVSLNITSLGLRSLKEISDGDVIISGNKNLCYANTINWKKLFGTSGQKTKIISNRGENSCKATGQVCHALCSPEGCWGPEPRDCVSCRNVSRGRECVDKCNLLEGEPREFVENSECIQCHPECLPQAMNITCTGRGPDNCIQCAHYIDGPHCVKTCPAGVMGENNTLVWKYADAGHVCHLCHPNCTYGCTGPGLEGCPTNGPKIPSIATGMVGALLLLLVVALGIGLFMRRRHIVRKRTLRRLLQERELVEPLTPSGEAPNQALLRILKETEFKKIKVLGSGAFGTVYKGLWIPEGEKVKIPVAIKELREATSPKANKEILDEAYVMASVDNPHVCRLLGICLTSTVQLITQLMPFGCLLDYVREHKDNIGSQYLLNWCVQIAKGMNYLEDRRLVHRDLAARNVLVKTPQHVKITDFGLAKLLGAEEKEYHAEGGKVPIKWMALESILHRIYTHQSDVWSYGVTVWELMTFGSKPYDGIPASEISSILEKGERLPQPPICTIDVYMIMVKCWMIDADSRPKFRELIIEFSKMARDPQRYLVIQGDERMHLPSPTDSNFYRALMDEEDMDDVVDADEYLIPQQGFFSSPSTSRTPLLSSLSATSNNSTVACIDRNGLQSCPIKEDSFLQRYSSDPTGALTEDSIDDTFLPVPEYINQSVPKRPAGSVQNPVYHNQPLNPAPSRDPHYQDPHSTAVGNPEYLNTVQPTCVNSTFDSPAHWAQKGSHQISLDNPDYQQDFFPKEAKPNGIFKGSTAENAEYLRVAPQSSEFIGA
Experimental: as §1, §2
The rest of the assay was performed in the same manner as the KDR assay.
as §3

[4] = biological target: PDGFR; assay: PDGFR kinase HTRF assay; format: biochemical; conditions: enzyme inhibition, 2.3 μM ATP
Experimental: as §1, §2
The PDGFR kinase activity assay was performed with 1 μM substrate (Biotin-EEEEYFELV), 1.0 nM PDGFR, test compounds, 100 mM HEPES, pH 7.4, 1 mM DTT, 5 mM MgCl2, 2 mM MnCl2, 1% DMSO, 2.3 μM ATP (Km for PDGFR), 0.1 mM Na2VO4, and 0.02% BSA. The rest of the assay was performed in the same manner as the KDR assay.
as §3

[5] = tested on: Human umbilical vein endothelial cells (HUVEC), VEGF-stimulated; assay: VEGF-stimulated HUVEC proliferation assay (BrdU); format: cell-based; conditions: BrdU labeling, VEGF 20 ng per mL, 24 hour exposure, read-out: HUVEC/VEFG IC50
Experimental: The antiproliferative activity of test compounds of this invention in cell-based assays was evaluated by BrdU assay using the BrdU kit (Roche Biochemicals 1-647-229). Human umbilical vein endothelial cells (Clonetics CC-2519) were cultured in EGM-2 (Clonetics CC-3162) medium and seeded at 10000 cells per well in a volume of 200 μL of EGM-2 (Clonetics CC-3162) media in a 96-well flat bottom plates (Costar 3595) overnight. After 24 hours of growth at 37° C. with 5% CO2, the incubation media was removed slowly by aspiration and the content of each well was washed with 300 μL pre-warmed EBM-2 (Clonetics CC-3156) containing 50 μg per mL of gentamycin and 50 ng per mL of amphotercin-B (Clonetics CC-4083). Subsequently, the remaining media was again aspirated and replaced with 160 μL per well of serum starvation media (EBM-2 supplemented with 1% heat inactivated FBS (Clonetics CC-4102), 50 μg per mL gentamycin and 50 ng per mL of amphotercin-B (Clonetics CC-4083), 10 units per mL of Wyeth-Ayerst heparin (NDC0641-0391-25), and 2 mM L-glutamine (GIBCO 25030-081). After serum starving the cells for 24 hours, 20 μL of test compound at 10× test concentration in serum starvation medium with 2.5% DMSO was added to the appropriate wells. The control wells contained 20 μL of serum starvation medium with 2.5% DMSO. Plates were returned to the incubator for 2 hours. […]
(§4) After 24 hour exposure to the test compounds, the cells were labeled with BrdU (Roche Biochemicals 1-647-229), by adding 20 μL per well of BrdU labeling reagent that has been diluted (1:100) in serum starvation medium. […] The plates were read at 450 nm with reference wavelength of 650 nm. The percent inhibition for each test compound was calculated by subtracting the absorbency of the blank (no cells) wells from all wells, then subtracting the division of the average absorbency of each test duplicate by the average of the controls from 1. […] The IC50 is determined from the linear regression of a plot of the logarithm of the concentration versus percent inhibition.

[6] = tested on: Human umbilical vein endothelial cells (HUVEC), FGF-stimulated; assay: FGF-stimulated HUVEC proliferation assay (BrdU); format: cell-based; conditions: BrdU labeling, FGF 5 ng per mL, 24 hour exposure, read-out: HUVEC/bFGFR IC50
Experimental: The antiproliferative activity of test compounds of this invention in cell-based assays was evaluated by BrdU assay using the BrdU kit (Roche Biochemicals 1-647-229). Human umbilical vein endothelial cells (Clonetics CC-2519) were cultured in EGM-2 (Clonetics CC-3162) medium and seeded at 10000 cells per well in a volume of 200 μL of EGM-2 (Clonetics CC-3162) media in a 96-well flat bottom plates (Costar 3595) overnight. After 24 hours of growth at 37° C. with 5% CO2, the incubation media was removed slowly by aspiration and the content of each well was washed with 300 μL pre-warmed EBM-2 (Clonetics CC-3156) containing 50 μg per mL of gentamycin and 50 ng per mL of amphotercin-B (Clonetics CC-4083). Subsequently, the remaining media was again aspirated and replaced with 160 μL per well of serum starvation media (EBM-2 supplemented with 1% heat inactivated FBS (Clonetics CC-4102), 50 μg per mL gentamycin and 50 ng per mL of amphotercin-B (Clonetics CC-4083), 10 units per mL of Wyeth-Ayerst heparin (NDC0641-0391-25), and 2 mM L-glutamine (GIBCO 25030-081). After serum starving the cells for 24 hours, 20 μL of test compound at 10× test concentration in serum starvation medium with 2.5% DMSO was added to the appropriate wells. The control wells contained 20 μL of serum starvation medium with 2.5% DMSO. Plates were returned to the incubator for 2 hours. After pre-incubating the cells with the test compounds for 2 hours, 20 μL of growth factors at 10×assay concentration diluted in serum starvation media, FGF at 50 ng per mL, or VEGF (R&D systems 293-VE) at 200 ng per mL were added. The final concentration of FGF in the assay was 5 ng per mL, and the final concentration of VEGF in the assays was 20 ng per mL. The growth factor free control wells had 20 μL per well of serum starvation media with the same amount of BSA as the wells with growth factors. The plates were returned to the incubator for an additional 22 hours.
as §4, with “medium. The plates were then returned to the incubator for 4 hours. The labeling medium was removed by draining the medium onto paper towels.” for “medium.”

T1 sequence (P35968 20-1356, species assumed): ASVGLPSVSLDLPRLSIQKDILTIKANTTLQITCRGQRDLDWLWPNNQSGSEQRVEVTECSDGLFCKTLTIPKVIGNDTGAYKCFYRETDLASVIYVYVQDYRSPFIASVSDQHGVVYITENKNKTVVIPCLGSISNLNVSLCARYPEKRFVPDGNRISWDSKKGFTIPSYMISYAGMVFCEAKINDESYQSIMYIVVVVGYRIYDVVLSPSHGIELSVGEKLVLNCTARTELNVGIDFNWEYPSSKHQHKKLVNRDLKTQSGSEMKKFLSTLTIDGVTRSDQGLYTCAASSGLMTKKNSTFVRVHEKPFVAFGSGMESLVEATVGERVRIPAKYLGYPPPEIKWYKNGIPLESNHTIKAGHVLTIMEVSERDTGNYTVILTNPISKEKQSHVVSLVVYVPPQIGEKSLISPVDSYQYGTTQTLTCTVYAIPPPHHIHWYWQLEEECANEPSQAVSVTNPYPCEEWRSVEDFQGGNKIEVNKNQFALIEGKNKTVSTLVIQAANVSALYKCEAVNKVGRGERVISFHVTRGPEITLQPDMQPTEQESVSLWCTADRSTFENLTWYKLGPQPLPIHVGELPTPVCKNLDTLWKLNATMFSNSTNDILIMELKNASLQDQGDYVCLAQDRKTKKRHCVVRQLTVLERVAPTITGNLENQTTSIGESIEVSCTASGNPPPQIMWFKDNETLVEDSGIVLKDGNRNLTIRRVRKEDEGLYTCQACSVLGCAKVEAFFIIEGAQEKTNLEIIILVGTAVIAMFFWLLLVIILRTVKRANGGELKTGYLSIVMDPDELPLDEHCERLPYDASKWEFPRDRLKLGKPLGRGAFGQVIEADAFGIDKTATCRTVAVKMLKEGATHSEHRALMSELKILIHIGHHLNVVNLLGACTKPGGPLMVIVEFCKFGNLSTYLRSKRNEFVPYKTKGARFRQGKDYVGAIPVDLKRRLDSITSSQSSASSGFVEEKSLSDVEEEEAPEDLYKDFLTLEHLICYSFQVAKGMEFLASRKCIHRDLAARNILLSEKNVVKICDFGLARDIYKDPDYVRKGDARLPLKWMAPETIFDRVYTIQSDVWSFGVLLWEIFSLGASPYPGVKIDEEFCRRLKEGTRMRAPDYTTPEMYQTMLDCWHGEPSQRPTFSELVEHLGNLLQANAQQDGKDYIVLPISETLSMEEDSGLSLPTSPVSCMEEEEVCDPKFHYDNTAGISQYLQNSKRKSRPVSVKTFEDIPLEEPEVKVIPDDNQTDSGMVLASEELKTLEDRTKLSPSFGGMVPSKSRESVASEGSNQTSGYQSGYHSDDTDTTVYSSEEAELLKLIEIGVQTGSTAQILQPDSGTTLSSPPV

IC50 [2] [µM]	IC50 [4] [µM]	SMILES	IC50 [1] [µM]	IC50 [3] [µM]	IC50 [5] [µM]	IC50 ([6]; Homo sapiens, HUVEC, 24 h) [µM]	melting point [°C]	IC50 ([2]; methanesulfonate salt) [µM]	IC50 ([4]; methanesulfonate salt) [µM]	IC50 ([6]; methanesulfonate salt) [µM]
0.11	0.064	COc1ccc(N2Cc3cnc(Nc4ccc(O)cc4)nc3N(c3ccccc3)C2=O)cc1 [Example 18, 7-[(4-Hydroxyphenyl)amino]-3-(4-methoxyphenyl)-1-phenyl-1,3,4-trihydropyrimidino[4,5-d]pyrimidin-2-one]	0.029	0.13	0.063	0.15				
		COc1ccc(N2Cc3cnc(N(C(=O)OCOC(=O)CN(C)C)c4ccccc4)nc3N(c3ccccc3)C2=O)cc1 [Example 5a]					172			
		COc1ccc(N2Cc3cnc(Nc4ccccc4)nc3N(c3ccccc3)C2=O)cc1.CS(=O)(=O)O [Example 1h, 3-(4-Methoxyphenyl)-1-phenyl-7-(phenylamino)-1,3,4-trihydropyrimidino[4,5-d]pyrimidin-2-one methanesulfonate salt]	0.076	0.35			245 to 251	0.17	0.15	0.43
0.091	0.082	COc1ccc(Nc2ncc3c(n2)N(c2ccccc2)C(=O)N(c2ccc(OC)cc2)C3)cc1 [Example 20, 3-(4-Methoxyphenyl)-7-[(4-methoxyphenyl)amino]-1-phenyl-1,3,4-trihydropyrimidino[4,5-d]pyrimidin-2-one]	0.024	0.18	0.096	0.35				

SMILES	IC50 [2] [µM]	IC50 [4] [µM]	IC50 [1] [µM]	IC50 [3] [µM]	IC50 [5] [µM]	IC50 ([6]; Homo sapiens, HUVEC, 24 h) [µM]	melting point [°C]	IC50 ([2]; methanesulfonate salt) [µM]	IC50 ([4]; methanesulfonate salt) [µM]	IC50 ([6]; methanesulfonate salt) [µM]
COc1ccc(N2Cc3cnc(Nc4ccccc4)nc3N(c3ccccc3)C2=O)cc1 [Example 1g, 3-(4-Methoxyphenyl)-1-phenyl-7-(phenylamino)-1,3,4-trihydropyrimidino[4,5-d]pyrimidin-2-one]	0.19	0.13	0.044	0.36	0.12	0.31				
